# Test results reported in PubChem BioAssay AID2060892 (Molecular Pharmacology Branch, DTP, NCI, 2025).
# Tested on: HOP-62 complex spheroids with HUVEC/MSC, viability
# Test: Anticancer human tumor HOP-62 cell line growth inhibition [RAS];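 note: spheroids exposed to agents for seven days before readout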;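 for viability, T/C: 100% = DMSO vehicle control viability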
# Settings: for IC50: curve of first compound; for viability, T/C: stronger effect = lower value
# In short: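 Agents were tested in combination matrices in half-log decrements from a top concentration at or near clinical Cmax (10 microM if undetermined). Targets were multi-cell spheroids of tumour lines plus HUVEC and MSC stromal cells.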
# [1] = second compound 0.0316 µM, first compound 0.0316 µM
# [2] = second compound 0.0316 µM, first compound 0.1 µM
# [3] = second compound 0.0316 µM, first compound 0.316 µM
# [4] = second compound 0.0316 µM, first compound 1 µM
# [5] = second compound 0.0316 µM, first compound 3.16 µM
# [6] = second compound 0.0316 µM, first compound 10 µM
# [7] = second compound 0.1 µM, first compound 0.0316 µM
# [8] = second compound 0.1 µM, first compound 0.1 µM
# [9] = second compound 0.1 µM, first compound 0.316 µM
# [10] = second compound 0.1 µM, first compound 1 µM
# [11] = second compound 0.1 µM, first compound 3.16 µM
# [12] = second compound 0.1 µM, first compound 10 µM
# [13] = second compound 0.316 µM, first compound 0.0316 µM
# [14] = second compound 0.316 µM, first compound 0.1 µM
# [15] = second compound 0.316 µM, first compound 0.316 µM
# [16] = second compound 0.316 µM, first compound 1 µM
# [17] = second compound 0.316 µM, first compound 3.16 µM
# [18] = second compound 0.316 µM, first compound 10 µM
# [19] = second compound 1 µM, first compound 0.0316 µM
# [20] = second compound 1 µM, first compound 0.1 µM
# [21] = second compound 1 µM, first compound 0.316 µM
# [22] = second compound 1 µM, first compound 1 µM
# [23] = second compound 1 µM, first compound 3.16 µM
# [24] = second compound 1 µM, first compound 10 µM
smiles,measurement,setting,value
CC(=O)OC12COC1CC(O)C1(C)C(=O)C(O)C3=C(C)C(OC(=O)C(O)C(NC(=O)OC(C)(C)C)c4ccccc4)CC(O)(C(OC(=O)c4ccccc4)C21)C3(C)C (centres undefined) + C=CC(=O)N1CCN(c2nc(OCC3CCCN3C)nc3c(F)c(-c4nc(N)cc(C)c4C(F)(F)F)c(Cl)cc23)C(C)C1,IC50,second compound 0.00316 µM,< 31.6 nM
same,IC50,second compound 0.01 µM,< 31.6 nM
same,IC50,second compound 0.0316 µM,< 31.6 nM
same,IC50,second compound 0.1 µM,< 31.6 nM
same,IC50,second compound 0.316 µM,< 31.6 nM
same,IC50,second compound 1 µM,< 31.6 nM
same,"viability, T/C","second compound 0.00316 µM, first compound 0.0316 µM",11.2%
same,"viability, T/C","second compound 0.00316 µM, first compound 0.1 µM",14.7%
same,"viability, T/C","second compound 0.00316 µM, first compound 0.316 µM",10.4%
same,"viability, T/C","second compound 0.00316 µM, first compound 1 µM",12.3%
same,"viability, T/C","second compound 0.00316 µM, first compound 3.16 µM",15.1%
same,"viability, T/C","second compound 0.00316 µM, first compound 10 µM",20.3%
same,"viability, T/C","second compound 0.01 µM, first compound 0.0316 µM",10.4%
same,"viability, T/C","second compound 0.01 µM, first compound 0.1 µM",11.1%
same,"viability, T/C","second compound 0.01 µM, first compound 0.316 µM",13.4%
same,"viability, T/C","second compound 0.01 µM, first compound 1 µM",10.4%
same,"viability, T/C","second compound 0.01 µM, first compound 3.16 µM",12.5%
same,"viability, T/C","second compound 0.01 µM, first compound 10 µM",16.6%
same,"viability, T/C",[1],9.88%
same,"viability, T/C",[2],11.9%
same,"viability, T/C",[3],11%
same,"viability, T/C",[4],13%
same,"viability, T/C",[5],15.2%
same,"viability, T/C",[6],14.6%
same,"viability, T/C",[7],11.6%
same,"viability, T/C",[8],12.4%
same,"viability, T/C",[9],11.9%
same,"viability, T/C",[10],13.6%
same,"viability, T/C",[11],15.2%
same,"viability, T/C",[12],19%
same,"viability, T/C",[13],9.18%
same,"viability, T/C",[14],9.55%
same,"viability, T/C",[15],10.4%
same,"viability, T/C",[16],10.9%
same,"viability, T/C",[17],14.8%
same,"viability, T/C",[18],20.1%
same,"viability, T/C",[19],10.2%
same,"viability, T/C",[20],10.5%
same,"viability, T/C",[21],13%
same,"viability, T/C",[22],14.2%
same,"viability, T/C",[23],15.5%
same,"viability, T/C",[24],20.1%
CC1(O)CCCC1n1c(=O)c(C(F)F)cc2cnc(NC3CCN(S(C)(=O)=O)CC3)nc21 (centres undefined) + C#Cc1c(F)ccc2cc(O)cc(-c3ncc4c(N5CC6CCC(C5)N6)nc(OCC56CCCN5CC(F)C6)nc4c3F)c12,IC50,second compound 0.0316 µM,383 nM
same,IC50,second compound 0.1 µM,398 nM
same,IC50,second compound 0.316 µM,343 nM
same,IC50,second compound 1 µM,324 nM
same,IC50,second compound 3.16 µM,146 nM
same,IC50,second compound 10 µM,< 31.6 nM
same,"viability, T/C",[1],87.9%
same,"viability, T/C",[2],53.1%
same,"viability, T/C",[3],43.3%
same,"viability, T/C",[4],40.5%
same,"viability, T/C",[5],47.8%
same,"viability, T/C",[6],0.9%
same,"viability, T/C",[7],91.3%
same,"viability, T/C",[8],52.2%
same,"viability, T/C",[9],45.3%
same,"viability, T/C",[10],48.8%
same,"viability, T/C",[11],35.7%
same,"viability, T/C",[12],1.45%
same,"viability, T/C",[13],91.4%
same,"viability, T/C",[14],50.7%
same,"viability, T/C",[15],38%
same,"viability, T/C",[16],42%
same,"viability, T/C",[17],42.2%
same,"viability, T/C",[18],1.44%
same,"viability, T/C",[19],84.7%
same,"viability, T/C",[20],53.6%
same,"viability, T/C",[21],37.2%
same,"viability, T/C",[22],45.2%
same,"viability, T/C",[23],40%
same,"viability, T/C",[24],3.73%
same,"viability, T/C","second compound 3.16 µM, first compound 0.0316 µM",66.6%
same,"viability, T/C","second compound 3.16 µM, first compound 0.1 µM",47.9%
same,"viability, T/C","second compound 3.16 µM, first compound 0.316 µM",34%
same,"viability, T/C","second compound 3.16 µM, first compound 1 µM",41.4%
same,"viability, T/C","second compound 3.16 µM, first compound 3.16 µM",27.6%
same,"viability, T/C","second compound 3.16 µM, first compound 10 µM",1.45%
same,"viability, T/C","second compound 10 µM, first compound 0.0316 µM",42%
same,"viability, T/C","second compound 10 µM, first compound 0.1 µM",37.3%
same,"viability, T/C","second compound 10 µM, first compound 0.316 µM",27.8%
same,"viability, T/C","second compound 10 µM, first compound 1 µM",29.4%
same,"viability, T/C","second compound 10 µM, first compound 3.16 µM",32.5%
same,"viability, T/C","second compound 10 µM, first compound 10 µM",1.15%
